The values that follow come from paper PMC3770298 (ACS medicinal chemistry letters, 2013).

Test [1] concerns Th1 cell differentiation. As to the kind of experiment: Th1 cell differentiation. The format is cell-based, mouse. Conditions: 20 μM; data not shown.
The target in test [2] is T1, RORα (Mus musculus, UniProt P51448).
T1 sequence (P51448 1-523): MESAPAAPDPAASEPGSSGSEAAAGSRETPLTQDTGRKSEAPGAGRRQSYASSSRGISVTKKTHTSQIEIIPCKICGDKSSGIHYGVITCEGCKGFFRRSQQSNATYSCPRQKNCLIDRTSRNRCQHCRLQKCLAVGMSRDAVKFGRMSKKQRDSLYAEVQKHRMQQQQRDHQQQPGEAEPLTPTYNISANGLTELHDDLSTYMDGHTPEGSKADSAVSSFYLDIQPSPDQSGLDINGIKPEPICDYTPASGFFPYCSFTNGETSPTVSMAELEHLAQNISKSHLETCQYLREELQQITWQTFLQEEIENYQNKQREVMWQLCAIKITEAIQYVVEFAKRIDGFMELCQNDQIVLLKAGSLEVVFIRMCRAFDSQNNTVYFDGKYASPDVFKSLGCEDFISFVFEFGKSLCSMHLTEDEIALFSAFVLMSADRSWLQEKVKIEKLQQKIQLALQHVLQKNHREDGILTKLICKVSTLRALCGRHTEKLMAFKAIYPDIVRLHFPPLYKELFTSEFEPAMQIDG
As to the kind of experiment: RORα gene reporter assay. The conditions noted are these: up to 96 μM. The class given is cell-based. (Reporter assays use an easily measured gene product as a stand-in for the process of interest.)

The subject of test [3] is VP16. The format is cell-based. The conditions noted are these: up to 96 μM.
Test [4] concerns mouse TH17 cell differentiation. As to the kind of experiment: mouse TH17 cell differentiation. The class given is cell-based. Conditions: read-out: inhibition of mouse TH17 cell differentiation.
The target in test [5] is T2, DHR3 (Drosophila melanogaster, UniProt P31396).
T2 sequence (P31396 1-487): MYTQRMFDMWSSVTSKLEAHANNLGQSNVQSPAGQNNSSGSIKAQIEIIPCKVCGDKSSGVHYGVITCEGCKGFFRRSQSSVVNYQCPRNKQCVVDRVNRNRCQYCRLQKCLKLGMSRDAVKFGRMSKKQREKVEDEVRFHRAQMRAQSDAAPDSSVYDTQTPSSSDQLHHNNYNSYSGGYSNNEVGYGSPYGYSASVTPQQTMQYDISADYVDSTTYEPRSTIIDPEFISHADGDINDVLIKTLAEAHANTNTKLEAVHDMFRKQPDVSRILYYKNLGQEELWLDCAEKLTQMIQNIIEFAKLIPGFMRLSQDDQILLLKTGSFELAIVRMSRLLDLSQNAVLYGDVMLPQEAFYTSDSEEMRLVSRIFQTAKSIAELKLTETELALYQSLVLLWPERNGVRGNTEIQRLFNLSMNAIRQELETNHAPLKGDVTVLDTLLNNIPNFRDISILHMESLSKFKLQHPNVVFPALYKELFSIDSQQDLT
As to the kind of experiment: DHR3 gene reporter assay. The class given is cell-based. Conditions: up to 96 μM.

Test [6] has as its target T3, RORγ ligand binding domain (LBD) (Homo sapiens, UniProt P51449).
T3 sequence (P51449 269-508 limits assumed): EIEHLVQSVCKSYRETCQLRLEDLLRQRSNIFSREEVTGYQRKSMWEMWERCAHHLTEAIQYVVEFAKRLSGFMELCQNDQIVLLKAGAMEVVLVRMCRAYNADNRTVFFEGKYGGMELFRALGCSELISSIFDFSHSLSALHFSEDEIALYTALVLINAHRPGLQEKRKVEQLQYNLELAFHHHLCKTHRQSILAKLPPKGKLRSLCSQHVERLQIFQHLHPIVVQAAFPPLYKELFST
As to the kind of experiment: fluoroprobe. Conditions: competition assay.

Test [7] has as its target T4, RORγ (Mus musculus, UniProt P51450).
T4 sequence (P51450 1-516): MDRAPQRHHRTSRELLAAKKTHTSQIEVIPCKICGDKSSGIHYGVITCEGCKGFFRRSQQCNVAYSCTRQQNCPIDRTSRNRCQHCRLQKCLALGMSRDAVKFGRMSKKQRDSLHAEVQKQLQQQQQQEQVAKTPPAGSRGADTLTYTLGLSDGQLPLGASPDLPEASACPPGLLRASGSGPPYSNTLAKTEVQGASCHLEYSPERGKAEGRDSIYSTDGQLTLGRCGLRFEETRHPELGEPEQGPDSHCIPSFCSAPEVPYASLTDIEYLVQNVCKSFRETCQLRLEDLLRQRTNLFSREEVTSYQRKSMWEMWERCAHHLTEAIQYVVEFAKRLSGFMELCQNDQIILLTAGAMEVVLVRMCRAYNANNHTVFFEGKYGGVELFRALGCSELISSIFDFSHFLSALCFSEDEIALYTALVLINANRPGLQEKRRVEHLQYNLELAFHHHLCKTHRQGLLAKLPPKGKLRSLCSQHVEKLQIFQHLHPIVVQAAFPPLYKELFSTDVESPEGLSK
As to the kind of experiment: cell-based RORγ gene reporter assay. The conditions noted are these: for IC50 (μM) (RORγ): Table 1, region A, mean of four replicates from two independent experiments.

On to `COc1cc(O)c(C(CC(=O)N2CCCC(C)C2)c2ccc3c(c2)OCO3)c(OC)c1` (stereo not drawn) [Compound 4a], for which, in test [1], the “effect on Th1 cell differentiation” value is reported as “no effect”. Besides, in test [2], the “activity in the RORα assay” value is “no activity”. Besides, in test [3], the “activity in the VP16 assay” value was “no activity”. Besides, the inhibition at 20 µM in test [4] worked out at 84%. In test [5], the “activity in the DHR3 assay” value was “no activity”.
Take `COc1cc(O)c(C(CC(=O)N2CCOCC2)c2ccc3c(c2)OCO3)c(OC)c1` (stereo not drawn) [Compound 4k]: the “displacement of hydroxycholesterol from RORγ LBD” value in test [6] was “failed to displace”. Further, in test [7], the “IC50 (μM) (RORγ)” value is “inactive”.
As to `COc1cc(O)c(C(CC(=O)N2C[C@@H](C)N[C@@H](C)C2)c2ccc3c(c2)OCO3)c(OC)c1` (stereo partly drawn) [Compound 4m], in test [7], the “IC50 (μM) (RORγ)” value was “inactive”.
On to `C[C@H]1O[C@@H](O[C@H]2[C@@H](O)C[C@H](O[C@H]3[C@@H](O)C[C@H](O[C@H]4CC[C@@]5(C)[C@H](CC[C@@H]6[C@@H]5C[C@@H](O)[C@]5(C)[C@@H](C7=CC(=O)OC7)CC[C@]65O)C4)O[C@@H]3C)O[C@@H]2C)C[C@H](O)[C@@H]1O` [Digoxin, reference compound], for which, in test [7] (qHTS of 310,000 compounds with VP16 counterscreen), the “result in qHTS for RORγ antagonists” value was “selective antagonists”.

One may read the inhibition as the drop in the measured response relative to a control, in per cent.
